Experimental data taken from ChEMBL document CHEMBL5291721, “A preclinical secondary pharmacology resource illuminates target-adverse drug reaction associations of marketed drugs” (Nat Commun, 2023).

How the values were obtained:
[1] = target: T1, Alpha-2A adrenergic receptor (Homo sapiens, UniProt P08913); assay type: functional, cell-based
T1 sequence (P08913 whole entry): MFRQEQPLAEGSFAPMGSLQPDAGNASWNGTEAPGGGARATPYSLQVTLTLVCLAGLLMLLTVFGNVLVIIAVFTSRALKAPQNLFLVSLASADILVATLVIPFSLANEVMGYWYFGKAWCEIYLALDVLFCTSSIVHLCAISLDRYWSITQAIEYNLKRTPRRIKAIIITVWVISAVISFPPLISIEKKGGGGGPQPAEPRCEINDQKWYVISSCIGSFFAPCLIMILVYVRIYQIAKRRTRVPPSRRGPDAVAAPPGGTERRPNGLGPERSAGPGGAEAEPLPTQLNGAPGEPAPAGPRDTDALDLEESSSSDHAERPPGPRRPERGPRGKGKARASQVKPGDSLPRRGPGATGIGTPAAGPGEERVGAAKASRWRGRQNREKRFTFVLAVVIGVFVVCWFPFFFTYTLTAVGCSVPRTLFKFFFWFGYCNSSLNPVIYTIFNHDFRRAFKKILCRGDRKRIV

[2] = target: T2, Prostaglandin G/H synthase 1 (Rattus norvegicus, UniProt Q63921); assay type: functional
T2 sequence (Q63921 whole entry): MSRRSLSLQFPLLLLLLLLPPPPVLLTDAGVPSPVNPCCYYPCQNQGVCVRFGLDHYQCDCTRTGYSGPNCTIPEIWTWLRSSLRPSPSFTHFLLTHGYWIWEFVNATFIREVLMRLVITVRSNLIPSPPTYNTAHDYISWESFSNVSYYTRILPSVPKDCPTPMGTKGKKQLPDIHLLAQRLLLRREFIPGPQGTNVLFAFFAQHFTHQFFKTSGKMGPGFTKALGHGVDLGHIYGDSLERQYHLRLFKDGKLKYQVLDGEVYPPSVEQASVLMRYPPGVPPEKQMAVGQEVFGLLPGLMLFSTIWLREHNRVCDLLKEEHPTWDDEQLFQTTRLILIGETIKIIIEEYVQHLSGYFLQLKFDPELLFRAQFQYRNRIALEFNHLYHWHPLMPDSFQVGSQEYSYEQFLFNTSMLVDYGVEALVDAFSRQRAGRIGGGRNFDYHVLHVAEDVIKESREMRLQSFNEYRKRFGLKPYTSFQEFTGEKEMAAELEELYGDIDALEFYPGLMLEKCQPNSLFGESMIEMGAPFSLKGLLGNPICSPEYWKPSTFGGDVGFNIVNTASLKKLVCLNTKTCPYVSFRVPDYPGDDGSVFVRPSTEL

[3] = target: Beta-2 adrenergic receptor (Homo sapiens, UniProt P07550)
Sequence of Beta-2 adrenergic receptor (P07550 whole entry): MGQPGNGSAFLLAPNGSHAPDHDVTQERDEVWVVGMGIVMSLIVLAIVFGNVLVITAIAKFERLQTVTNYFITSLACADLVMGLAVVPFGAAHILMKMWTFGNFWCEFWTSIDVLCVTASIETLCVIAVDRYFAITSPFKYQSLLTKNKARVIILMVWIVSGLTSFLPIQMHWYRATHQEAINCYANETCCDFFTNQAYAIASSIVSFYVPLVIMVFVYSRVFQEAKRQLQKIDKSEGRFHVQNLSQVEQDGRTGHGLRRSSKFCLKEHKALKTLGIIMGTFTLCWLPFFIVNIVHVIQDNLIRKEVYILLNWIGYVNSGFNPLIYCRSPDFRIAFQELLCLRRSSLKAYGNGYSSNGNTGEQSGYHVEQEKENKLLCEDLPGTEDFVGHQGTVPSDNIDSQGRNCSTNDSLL

[4] = target: T1, Alpha-2A adrenergic receptor; assay type: functional, cell-based; remark: listed apart in the source
[5] = target: 5-hydroxytryptamine receptor 2B (Homo sapiens, UniProt P41595); assay type: functional, cell-based
Sequence of 5-hydroxytryptamine receptor 2B (P41595 whole entry): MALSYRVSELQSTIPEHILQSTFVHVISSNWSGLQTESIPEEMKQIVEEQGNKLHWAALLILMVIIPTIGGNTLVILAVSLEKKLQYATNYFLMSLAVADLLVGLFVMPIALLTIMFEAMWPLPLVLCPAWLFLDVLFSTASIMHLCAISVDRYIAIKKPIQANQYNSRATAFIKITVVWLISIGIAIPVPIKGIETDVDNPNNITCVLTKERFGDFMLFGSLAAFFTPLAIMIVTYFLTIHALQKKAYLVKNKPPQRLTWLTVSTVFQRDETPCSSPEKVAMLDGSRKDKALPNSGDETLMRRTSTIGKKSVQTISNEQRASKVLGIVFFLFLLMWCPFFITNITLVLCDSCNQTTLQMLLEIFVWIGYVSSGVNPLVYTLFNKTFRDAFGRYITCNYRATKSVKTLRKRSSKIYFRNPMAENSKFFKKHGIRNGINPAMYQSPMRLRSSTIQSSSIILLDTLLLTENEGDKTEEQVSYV

[6] = target: Adenosine receptor A2a (Homo sapiens, UniProt P29274)
Sequence of Adenosine receptor A2a (P29274 whole entry): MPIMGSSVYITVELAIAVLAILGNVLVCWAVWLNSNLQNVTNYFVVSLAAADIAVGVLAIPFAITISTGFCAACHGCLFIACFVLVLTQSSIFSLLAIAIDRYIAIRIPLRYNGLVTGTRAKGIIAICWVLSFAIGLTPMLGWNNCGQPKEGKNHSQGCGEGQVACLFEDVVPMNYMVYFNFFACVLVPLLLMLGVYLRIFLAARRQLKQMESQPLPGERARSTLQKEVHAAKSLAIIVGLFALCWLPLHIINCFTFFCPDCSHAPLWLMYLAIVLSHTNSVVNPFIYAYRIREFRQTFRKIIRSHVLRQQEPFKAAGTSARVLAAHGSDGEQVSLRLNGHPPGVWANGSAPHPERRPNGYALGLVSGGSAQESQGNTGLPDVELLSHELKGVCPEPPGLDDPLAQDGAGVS

[7] = target: D(3) dopamine receptor (Homo sapiens, UniProt P35462)
Sequence of D(3) dopamine receptor (P35462 whole entry): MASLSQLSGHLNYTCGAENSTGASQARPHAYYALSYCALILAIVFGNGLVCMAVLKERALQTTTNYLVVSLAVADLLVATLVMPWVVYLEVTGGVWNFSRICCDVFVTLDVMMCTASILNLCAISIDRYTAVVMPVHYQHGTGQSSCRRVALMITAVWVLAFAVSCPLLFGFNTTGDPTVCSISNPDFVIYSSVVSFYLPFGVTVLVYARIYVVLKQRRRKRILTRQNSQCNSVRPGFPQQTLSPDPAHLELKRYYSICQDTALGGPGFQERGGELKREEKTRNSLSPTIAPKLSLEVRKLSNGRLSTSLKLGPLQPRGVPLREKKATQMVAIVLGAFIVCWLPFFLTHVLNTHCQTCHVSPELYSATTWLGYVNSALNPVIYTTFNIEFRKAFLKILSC

[8] = target: Beta-1 adrenergic receptor (Homo sapiens, UniProt P08588); assay type: functional
Sequence of Beta-1 adrenergic receptor (P08588 whole entry): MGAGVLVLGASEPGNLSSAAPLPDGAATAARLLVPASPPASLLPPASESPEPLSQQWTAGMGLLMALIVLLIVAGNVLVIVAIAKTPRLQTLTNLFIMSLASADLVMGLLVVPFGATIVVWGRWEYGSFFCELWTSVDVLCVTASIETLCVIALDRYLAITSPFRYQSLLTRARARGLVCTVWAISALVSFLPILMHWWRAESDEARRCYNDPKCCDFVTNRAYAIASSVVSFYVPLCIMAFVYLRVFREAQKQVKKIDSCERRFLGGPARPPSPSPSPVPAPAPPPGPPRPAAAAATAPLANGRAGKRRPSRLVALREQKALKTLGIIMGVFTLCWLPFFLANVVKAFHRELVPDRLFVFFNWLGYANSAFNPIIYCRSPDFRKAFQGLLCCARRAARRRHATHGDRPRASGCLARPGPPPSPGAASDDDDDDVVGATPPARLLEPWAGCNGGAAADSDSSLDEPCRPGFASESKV

[9] = target: T3, Alpha-1A adrenergic receptor (Homo sapiens, UniProt P35348)
T3 sequence (P35348 whole entry): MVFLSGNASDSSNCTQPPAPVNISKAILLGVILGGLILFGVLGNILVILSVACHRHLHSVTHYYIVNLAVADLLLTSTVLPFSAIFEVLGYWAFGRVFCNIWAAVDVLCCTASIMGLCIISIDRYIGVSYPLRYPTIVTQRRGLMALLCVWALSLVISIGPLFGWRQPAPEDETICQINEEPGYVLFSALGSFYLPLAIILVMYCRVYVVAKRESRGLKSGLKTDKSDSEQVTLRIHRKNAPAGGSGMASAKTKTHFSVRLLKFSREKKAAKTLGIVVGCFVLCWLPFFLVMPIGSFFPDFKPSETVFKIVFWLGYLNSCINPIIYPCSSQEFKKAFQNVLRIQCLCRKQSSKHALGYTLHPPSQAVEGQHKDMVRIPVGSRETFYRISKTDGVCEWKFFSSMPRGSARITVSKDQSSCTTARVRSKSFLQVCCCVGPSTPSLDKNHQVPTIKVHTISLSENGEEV

[10] = target: Cannabinoid receptor 1 (Homo sapiens, UniProt P21554); assay type: functional, cell-based
Sequence of Cannabinoid receptor 1 (P21554 whole entry): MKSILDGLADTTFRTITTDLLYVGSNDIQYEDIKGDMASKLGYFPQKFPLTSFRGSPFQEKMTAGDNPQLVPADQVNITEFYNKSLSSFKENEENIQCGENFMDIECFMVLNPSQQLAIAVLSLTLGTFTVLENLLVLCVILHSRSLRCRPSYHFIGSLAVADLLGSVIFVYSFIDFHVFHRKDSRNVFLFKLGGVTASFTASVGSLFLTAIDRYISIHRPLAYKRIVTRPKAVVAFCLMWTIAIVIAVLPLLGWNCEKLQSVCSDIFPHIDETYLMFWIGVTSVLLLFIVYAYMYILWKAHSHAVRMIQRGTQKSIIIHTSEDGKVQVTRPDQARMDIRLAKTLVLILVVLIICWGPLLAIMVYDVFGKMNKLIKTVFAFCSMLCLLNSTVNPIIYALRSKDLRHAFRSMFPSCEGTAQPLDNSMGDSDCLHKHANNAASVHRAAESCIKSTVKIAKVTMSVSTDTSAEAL

[11] = target: T3, Alpha-1A adrenergic receptor; assay type: functional, cell-based
[12] = target: Prostaglandin G/H synthase 1 (Homo sapiens, UniProt P23219); assay type: functional
Sequence of Prostaglandin G/H synthase 1 (Homo sapiens, UniProt P23219) (P23219 whole entry): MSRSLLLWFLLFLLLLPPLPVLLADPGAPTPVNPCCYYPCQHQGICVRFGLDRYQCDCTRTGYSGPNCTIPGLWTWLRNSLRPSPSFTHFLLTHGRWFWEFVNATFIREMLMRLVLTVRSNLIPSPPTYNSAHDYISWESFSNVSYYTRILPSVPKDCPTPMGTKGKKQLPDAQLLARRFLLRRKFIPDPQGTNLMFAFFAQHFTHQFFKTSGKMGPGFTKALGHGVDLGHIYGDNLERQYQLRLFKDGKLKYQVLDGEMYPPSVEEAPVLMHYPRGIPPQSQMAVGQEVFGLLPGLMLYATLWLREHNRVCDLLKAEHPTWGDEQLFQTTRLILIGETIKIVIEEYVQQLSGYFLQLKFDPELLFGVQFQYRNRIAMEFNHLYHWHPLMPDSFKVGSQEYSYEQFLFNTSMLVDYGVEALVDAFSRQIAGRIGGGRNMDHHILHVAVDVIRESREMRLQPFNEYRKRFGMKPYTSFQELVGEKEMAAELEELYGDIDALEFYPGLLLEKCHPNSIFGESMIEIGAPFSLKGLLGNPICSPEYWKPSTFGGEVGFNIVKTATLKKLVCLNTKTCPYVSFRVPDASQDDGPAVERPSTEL

[13] = target: T4, Adenosine receptor A3 (Homo sapiens, UniProt P0DMS8)
T4 sequence (P0DMS8 whole entry): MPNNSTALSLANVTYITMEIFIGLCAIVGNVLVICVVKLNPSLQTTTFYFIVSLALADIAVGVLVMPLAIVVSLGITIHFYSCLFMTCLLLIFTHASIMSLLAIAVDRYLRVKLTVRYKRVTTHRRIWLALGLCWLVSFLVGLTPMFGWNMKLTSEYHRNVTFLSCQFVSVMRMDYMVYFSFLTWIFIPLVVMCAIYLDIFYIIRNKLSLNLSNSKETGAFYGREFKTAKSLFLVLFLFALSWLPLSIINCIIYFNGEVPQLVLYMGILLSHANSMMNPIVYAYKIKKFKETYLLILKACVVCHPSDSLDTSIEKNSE
Further: assay procedure not described here.

SMILES	AC50 [1] [µM]	AC50 [2] [µM]	AC50 [3] [µM]	AC50 [4] [µM]	AC50 [5] [µM]	AC50 [6] [µM]	AC50 [7] [µM]	AC50 [8] [µM]	AC50 [9] [µM]	AC50 [10] [µM]	AC50 [11] [µM]	AC50 [12] [µM]	AC50 [13] [µM]
C[N+]1(C)CCC(=C(c2ccccc2)c2ccccc2)CC1	> 10	> 10	> 10	> 10	> 10	> 30	> 30	> 10	> 10				
C[N+](C)(C)CCOP(=O)([O-])OC[C@H](O)CO	> 30	> 30	> 30	> 30	> 30	> 30	> 30	> 30		> 30	> 30		
CN(C)Cc1nnc2n1-c1ccc(Cl)cc1C(c1ccccc1)=NC2 [ADINAZOLAM]	> 10	> 10	> 10	> 10	> 10	> 10	> 30	> 10	> 10				
CN(C)C/C=C/C(=O)Nc1cc2c(Nc3ccc(F)c(Cl)c3)ncnc2cc1O[C@H]1CCOC1 [AFATINIB]		> 30		> 30	> 30	> 30	> 30	> 30		> 30	> 30		
Cc1ccccc1-n1c(CF)nc2ccc(N)cc2c1=O [AFLOQUALONE]	> 10	27.9	> 30	> 10	> 10	> 30	> 30	> 30	> 30				
CCC1(c2ccc(N)cc2)CCC(=O)NC1=O (stereo unspecified) [AMINOGLUTETHIMIDE]	> 30	> 30		> 30	> 30	> 30	> 30	> 30		> 30	> 30		
CC1=C(C(=O)OC(C)C)C(c2cccc([N+](=O)[O-])c2)C(C(=O)OC2CN(C(c3ccccc3)c3ccccc3)C2)=C(N)N1 (stereo unspecified) [AZELNIDIPINE]	> 30	16	> 30	> 30	> 30	> 30	> 30	27		> 30	26		
CC(Cc1cccc(C(F)(F)F)c1)NCCOC(=O)c1ccccc1 (stereo unspecified) [BENFLUOREX]				> 30	> 30	> 30	2.63	5.7		> 30	14		
CCOC(=O)c1ccc(N)cc1 [BENZOCAINE]	> 10	> 10	> 10	> 10	> 10	> 10	> 30	> 10	> 10				
C=C1CC[C@H](O)C/C1=C/C=C1\CCC[C@]2(C)[C@@H]([C@H](C)CCCC(C)C)CC[C@@H]12 [CHOLECALCIFEROL]												22.9	14.8
C[C@H](CCC(=O)O)[C@H]1CC[C@H]2[C@@H]3[C@H](O)C[C@@H]4C[C@H](O)CC[C@]4(C)[C@H]3C[C@H](O)[C@]12C [CHOLIC ACID]													> 30
CN[C@]1(c2ccccc2Cl)CCCCC1=O [ESKETAMINE]	> 30	> 30	> 30	> 30	> 30	> 30	> 30	> 30			> 30		
CCOC(=O)C1=C(C)NC(C)=C(C(=O)OCC)C1c1ccccc1/C=C/C(=O)OC(C)(C)C [LACIDIPINE]	> 30	> 30	> 30	> 30	> 30	> 30	> 30	> 30		> 30	> 30		
COC(=O)C1=C(C)NC(C)=C(C(=O)OCCN2CCN(C(c3ccccc3)c3ccccc3)CC2)C1c1cccc([N+](=O)[O-])c1 (stereo unspecified) [MANIDIPINE 6300]	> 30	7.4	> 30	> 30	> 30	> 30	6.3	> 30		> 30	> 30		
O=C1c2cccc3c2[C@H](CCC3)CN1[C@@H]1CN2CCC1CC2 [PALONOSETRON]	25	> 30	> 30	> 30	> 30	> 30	29	> 30			29		
OC[C@H]1O[C@@H](n2cnc3c2NC=NC[C@H]3O)C[C@@H]1O [PENTOSTATIN]	> 30	6.6		> 30	> 30	3.4	> 30	> 30		> 30			
Cc1cccc(C)c1NC(=O)CC12CCCN1CCC2 [PILSICAINIDE]	> 30	> 30	> 30	> 30	> 30	> 30	> 30	> 30		> 30	> 30		
CC(C)c1cccc(C(C)C)c1O [PROPOFOL]	> 30	> 3		> 30	> 30	> 30	> 30	> 30		> 30	> 30		
COC(=O)[C@H]1[C@H]2C[C@@H]3c4[nH]c5cc(OC)ccc5c4CCN3C[C@H]2C[C@@H](OC(=O)c2cc(OC)c(OC)c(OC)c2)[C@@H]1OC [RESERPINE]	> 10	18.8	> 10	> 10	> 10	> 30	> 30	> 10				> 10	17.7
O=C1OC(OC(=O)c2cccnc2Nc2cccc(C(F)(F)F)c2)c2ccccc21 (stereo unspecified) [TALNIFLUMATE]		> 30		> 30	> 30	> 30	> 30	> 30		> 30			
Cc1ccc(C(=O)C(C)CN2CCCCC2)cc1 (stereo unspecified) [TOLPERISONE]												> 30	> 30
CCOC(=O)c1c(CSc2ccccc2)n(C)c2cc(Br)c(O)c(CN(C)C)c12 [UMIFENOVIR]	> 30	19	> 30	> 30	> 30	23	6.8	> 30		> 30			
